Publication PMC8936499, “Cytochrome P450 168A1 from Pseudomonas aeruginosa is involved in the hydroxylation of biologically relevant fatty acids” (PLoS ONE, 2022)
Where two headings read alike, the source gives them in different places. Marks after values point to notes of the source that are not given here.

Assays:
CYP168A1 [1] = molecular target: T1, CYP168A1 (Pseudomonas aeruginosa, UniProt Q9I107); assay: Fatty acid binding studies (spectral titration, type I difference spectra); settings: for Low- to high-spin state change (%): from ΔAmax; for Kd: read-out: Ks, mean of four replicates ± SD
Method: The absorbance difference spectra from 500 nm to 350 nm were determined after each incremental addition of fatty acid. Ligand saturation curves were constructed from the change in absorbance (ΔApeak-trough) against fatty acid concentration. The dissociation constant for the fatty acid-CYP168A1 complex (Ks) was determined by nonlinear regression (Levenberg-Marquardt algorithm) using a rearrangement of the Morrison equation [14] and the Michaelis-Menten equation. […]. All fatty acid binding experiments were undertaken in quadruplicate.
In between ligand binding determinations, the quartz cuvettes were washed with deionized water and then soaked for 30 min in 2-propanol at room temperature to desorb any residual fatty acids from the cuvette surfaces, followed by rinsing a further three-times with 2-propanol and then deionized water prior to drying.

CYP168A1 [2] = settings: cited from earlier work
CYP168A1 [3] = settings: cited from earlier work; remark: listed apart in the source
CYP168A1 [4] = molecular target: T1, CYP168A1; format: biochemical; settings: 0.5% DMF in the CYP168A1 assay system
Method: Assay mixtures were incubated at 37°C for 5 min prior to initiation with 4 mM β-NADPH-Na4 and then incubated for a further 2.5 hours at the same temperature. Fatty acids and their hydroxylated products were recovered by extraction with dichloromethane and dried in a vacuum centrifuge. TMS derivatisation of the samples and analysis by GCMS were performed as previously described. Percentage product formation was calculated from the GC peak areas of the fatty acid and the hydroxylated metabolites, with compound identities confirmed by mass fragmentation patterns of fatty acid standards.
Control assays contained no azole, but an equivalent volume of DMF. Experiments were undertaken in duplicate.

CYP168A1 [5] = molecular target: T1, CYP168A1; settings: for Turnover no., ω-1- carbon hydroxylated / % Product, ω-1- carbon hydroxylated / Turnover no., ω-2- carbon hydroxylated / % Product, ω-2- carbon hydroxylated: 100 μM substrate, mean of two replicates ± standard error; for Turnover no., ω-1- carbon hydroxylated / Turnover no., ω-2- carbon hydroxylated: 0.25 μM CYP168A1, 37°C; for % Product, ω-1- carbon hydroxylated / % Product, ω-2- carbon hydroxylated: 0.25 μM CYP168A1, 2.5 h at 37°C; for hydroxylation rate at both the ω-1- and ω-2-positions (total): sum of ω-1 and ω-2 turnover
CYP168A1 [6] = settings: comparison with ref 40
CYP168A1 [7] = molecular target: T1, CYP168A1; settings: 50 μM substrate, 2 μM CYP168A1, 3 hours at 37°C
CYP168A1 [8] = test system: CYP168A1; design: method as in PMID 35085556; settings: arachidonic acid as substrate, CYP168A1:ketoconazole ratio 5μM:10μM; cited from earlier work
[9] = test system: Streptomyces peucetius CYP147F1; design: method as in PMID 24055535; settings: cited from earlier work
CYP168A1 [10] = molecular target: T1, CYP168A1; assay: Azole binding studies (spectral titration, type II difference spectra); settings: read-out: apparent dissociation constant (Kd) of azole-CYP168A1 complex; 2 μM CYP168A1, rearranged Morrison equation, duplicate
Candida albicans CYP51 = test system: Candida albicans CYP51; design: method as in PMID 23274672, PMID 20625155; settings: cited from earlier work
[11] = 5 μM CYP168A1, cuvette path length 10 mm
[12] = 5 μM CYP168A1, path length 10 mm
[13] = 5 μM CYP168A1, 0.1 M Tris-HCl pH 8.1, room temperature, rearranged Morrison equation

T1 sequence (Q9I107 entry or part of it): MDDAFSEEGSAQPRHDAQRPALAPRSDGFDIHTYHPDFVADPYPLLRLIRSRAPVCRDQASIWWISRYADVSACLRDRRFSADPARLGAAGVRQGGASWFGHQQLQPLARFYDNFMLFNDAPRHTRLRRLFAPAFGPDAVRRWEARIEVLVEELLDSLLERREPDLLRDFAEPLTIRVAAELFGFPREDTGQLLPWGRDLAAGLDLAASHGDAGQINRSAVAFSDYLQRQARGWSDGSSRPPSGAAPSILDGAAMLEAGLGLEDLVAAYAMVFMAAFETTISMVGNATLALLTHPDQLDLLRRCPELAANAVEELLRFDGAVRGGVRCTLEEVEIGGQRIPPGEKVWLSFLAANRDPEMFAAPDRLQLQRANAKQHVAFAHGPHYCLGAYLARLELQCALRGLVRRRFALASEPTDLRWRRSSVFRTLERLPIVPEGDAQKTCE

CCCCC/C=C\C/C=C\C/C=C\C/C=C\CCCC(=O)O [Arachidonic acid, arachidonic acid]
Ks value, fold larger than stearic acid (CYP168A1 [1]): 9000 fold
fold-difference in apparent Ks values compared to stearic and linoleic acids (CYP168A1 [1]): ~9160 fold
ΔAmax (CYP168A1 [1]; 5 μM CYP168A1, cuvette path length 4.5 mm): 0.071 ±0.009 ^b
Ks in this study, fold higher than recently reported (CYP168A1 [1]; compared with ref 28): over 400 fold
Low- to high-spin state change (%) (CYP168A1 [1]; 5 μM CYP168A1, path length 4.5 mm): 31.6 ±4.0 ^b %
Low- to high-spin state change (%) (CYP168A1 [1]; 5 μM CYP168A1, path length 4.5 mm, listed as arachidonic acid): 32%
Kd (CYP168A1 [1]; 5 μM CYP168A1, Michaelis-Menten equation, saturation not achieved at 660 μM): 458000 ± 87000 nM
Kd (CYP168A1 [1]; 5 μM CYP168A1, Michaelis-Menten equation, saturation not achieved at 660 μM, listed as arachidonic acid): ~460000 nM
CYP168A1 turnover number (CYP168A1 [2]): 0.222 min⁻¹
Kd (CYP168A1 [3]): 960 nM

CN(C)C=O [DMF, dimethylformamide]
reduction in oleic acid turnover (CYP168A1 [4]): 10 fold

CCCCC/C=C\C/C=C\CCCCCCCC(=O)O [Linoleic acid, linoleic acid]
ΔAmax (CYP168A1 [1]; [11]): 0.142 ±0.013
Low- to high-spin state change (%) (CYP168A1 [1]; [12]): 28.3 ±2.6%
Low- to high-spin state change (%) (CYP168A1 [1]; 5 μM CYP168A1, path length 10 mm, listed as linoleic acid): 28%
Kd (CYP168A1 [1]; [13]): < 50 nM
Turnover no., ω-1- carbon hydroxylated (CYP168A1 [5]): 0.35 ± 0.03 min⁻¹
Turnover no., ω-1- carbon hydroxylated (CYP168A1 [5]; listed as linoleic acid): 0.35 min⁻¹
% Product, ω-1- carbon hydroxylated (CYP168A1 [5]): 14 ± 1.3%

CCCCCCCCCCCCCC(=O)O [Myristic acid, myristic acid]
fold-difference in apparent Ks values compared to stearic and linoleic acids (CYP168A1 [1]): ~5 fold
Low- to high-spin state change (%) (CYP168A1 [1]; [12]): 22.8 ±1.6%
Low- to high-spin state change (%) (CYP168A1 [1]; 5 μM CYP168A1, path length 10 mm, listed as myristic acid): 23%
Kd (CYP168A1 [1]; [13]): 249 ± 103 nM
Kd (CYP168A1 [1]; 5 μM CYP168A1, 0.1 M Tris-HCl pH 8.1, room temperature, rearranged Morrison equation, listed as myristic acid): 250 nM
catalytic turnover, fold lower than palmitic acid (CYP168A1 [5]): 5.3 fold
fold less ω-1-hydroxy product formed than with palmitic acid as substrate (CYP168A1 [5]): 4.7 fold
fold less ω-2-hydroxy product formed than with palmitic acid as substrate (CYP168A1 [5]): 10.3 fold
Turnover no., ω-1- carbon hydroxylated (CYP168A1 [5]): 0.27 ± 0.02 min⁻¹
Turnover no., ω-2- carbon hydroxylated (CYP168A1 [5]): 0.033 ± 0.001 min⁻¹
% Product, ω-1- carbon hydroxylated (CYP168A1 [5]): 11 ± 0.6%
% Product, ω-2- carbon hydroxylated (CYP168A1 [5]): 1.3 ± 0.03%
hydroxylation rate at both the ω-1- and ω-2-positions (total) (CYP168A1 [5]): 0.30 min⁻¹

CCCCCCCC/C=C\CCCCCCCC(=O)O [Oleic acid, oleic acid]
ΔAmax (CYP168A1 [1]; [11]): 0.277 ±0.014
Low- to high-spin state change (%) (CYP168A1 [1]; [12]): 55.4 ±2.8%
Low- to high-spin state change (%) (CYP168A1 [1]; 5 μM CYP168A1, path length 10 mm, listed as oleic acid): 55%
Kd (CYP168A1 [1]; [13]): 142 ± 12 nM
Kd (CYP168A1 [1]; 5 μM CYP168A1, 0.1 M Tris-HCl pH 8.1, room temperature, rearranged Morrison equation, listed as oleic acid): ~150 nM
% Product, ω-1- carbon hydroxylated (CYP168A1 [5]): 49 ± 1.2%

CCCCCCCCCCCCCCCC(=O)O [Palmitic acid, palmitic acid]
fold-difference in apparent Ks values compared to stearic and linoleic acids (CYP168A1 [1]): ~2 fold
ΔAmax (CYP168A1 [1]; [11]): 0.290 ±0.015
Low- to high-spin state change (%) (CYP168A1 [1]; [12]): 58.1 ±3.0%
Low- to high-spin state change (%) (CYP168A1 [1]; 5 μM CYP168A1, path length 10 mm, listed as palmitic acid): 58%
Kd (CYP168A1 [1]; [13]): 117 ± 56 nM
Kd (CYP168A1 [1]; 5 μM CYP168A1, 0.1 M Tris-HCl pH 8.1, room temperature, rearranged Morrison equation, listed as palmitic acid): 120 nM
turnover, fold greater than observed with Mycobacterium tuberculosis CYP124 (CYP168A1 [6]): 23 fold
Turnover no., ω-1- carbon hydroxylated (CYP168A1 [5]): 1.27 ± 0.10 min⁻¹
Turnover no., ω-2- carbon hydroxylated (CYP168A1 [5]): 0.34 ± 0.10 min⁻¹
Turnover no., ω-1- carbon hydroxylated (CYP168A1 [5]; listed as palmitic acid): 1.27 min⁻¹
Turnover no., ω-2- carbon hydroxylated (CYP168A1 [5]; listed as palmitic acid): 0.34 min⁻¹
% Product, ω-1- carbon hydroxylated (CYP168A1 [5]): 49 ± 3.8%
% Product, ω-2- carbon hydroxylated (CYP168A1 [5]): 13 ± 4.0%
hydroxylation rate at both the ω-1- and ω-2-positions (total) (CYP168A1 [5]): 1.61 min⁻¹

CCCCCC/C=C\CCCCCCCC(=O)O [Palmitoleic acid, palmitoleic acid]
fold-difference in apparent Ks values compared to stearic and linoleic acids (CYP168A1 [1]): ~3 fold
ΔAmax (CYP168A1 [1]; [11]): 0.185 ±0.006
Low- to high-spin state change (%) (CYP168A1 [1]; [12]): 37.0 ±1.2%
Low- to high-spin state change (%) (CYP168A1 [1]; 5 μM CYP168A1, path length 10 mm, listed as palmitoleic acid): 37%
Kd (CYP168A1 [1]; [13]): 155 ± 83 nM
Kd (CYP168A1 [1]; 5 μM CYP168A1, 0.1 M Tris-HCl pH 8.1, room temperature, rearranged Morrison equation, listed as palmitoleic acid): ~150 nM
Turnover no., ω-1- carbon hydroxylated (CYP168A1 [5]): 0.38 ± 0.06 min⁻¹
Turnover no., ω-1- carbon hydroxylated (CYP168A1 [5]; listed as palmitoleic acid): 0.38 min⁻¹
% Product, ω-1- carbon hydroxylated (CYP168A1 [5]): 15 ± 2.4%

CCCCCCCCCCCCCCCCCC(=O)O [Stearic acid, stearic acid]
ΔAmax (CYP168A1 [1]; [11]): 0.328 ±0.020
Ks in this study, fold lower than recently reported (CYP168A1 [1]; compared with ref 28): over 6 fold
Low- to high-spin state change (%) (CYP168A1 [1]; [12]): 65.6 ±4.1%
Low- to high-spin state change (%) (CYP168A1 [1]; 5 μM CYP168A1, path length 10 mm, listed as stearic acid): 66%
Kd (CYP168A1 [1]; [13]): < 50 nM
Kd (CYP168A1 [3]; read-out: Ks reported for P. aeruginosa CYP168A1): 327 nM
catalytic turnover, fold greater than that for linoleic acid (CYP168A1 [5]): 3.5 fold
fold less ω-1-hydroxy product formed than with palmitic acid as substrate (CYP168A1 [5]): 1.2 fold
fold less ω-2-hydroxy product formed than with palmitic acid as substrate (CYP168A1 [5]): 2 fold
Turnover no., ω-1- carbon hydroxylated (CYP168A1 [5]): 1.07 ± 0.09 min⁻¹
Turnover no., ω-2- carbon hydroxylated (CYP168A1 [5]): 0.17 ± 0.01 min⁻¹
% Product, ω-1- carbon hydroxylated (CYP168A1 [5]): 41 ± 2.9%
% Product, ω-2- carbon hydroxylated (CYP168A1 [5]): 6.6 ± 0.5%
hydroxylation rate at both the ω-1- and ω-2-positions (total) (CYP168A1 [5]): 1.24 min⁻¹

CC(C)CCC[C@@H](C)[C@H]1CC[C@H]2[C@@H]3CCC4=CC(=O)CC[C@]4(C)[C@H]3CC[C@]12C [cholesta-4-ene-3-one]
oxygenated products formed (CYP168A1 [7]): no oxygenated products

CC(C)CCC[C@@H](C)[C@H]1CC[C@H]2[C@@H]3CC=C4C[C@@H](O)CC[C@]4(C)[C@H]3CC[C@]12C [cholesterol]
oxygenated products formed (CYP168A1 [7]): no oxygenated products

CC(=O)N1CCN(c2ccc(OCC3COC(Cn4ccnc4)(c4ccc(Cl)cc4Cl)O3)cc2)CC1 (stereo not drawn) [ketoconazole]
reduction in enzyme activity (CYP168A1 [8]): ~70%

CCCCCCCCCCCC(=O)O [lauric acid]
enzyme molecules undergoing low- to high-spin state transition [9]: 95%
CYP168A1 Km, fold higher than the Ks value (CYP168A1 [2]): 25 fold
CYP168A1 turnover number (CYP168A1 [2]): 0.138 min⁻¹

Clc1ccc(COC(Cn2ccnc2)c2ccc(Cl)cc2Cl)c(Cl)c1 (stereo not drawn) [miconazole]
Kd (CYP168A1 [10]): 190 ± 60 nM
Kd (Candida albicans CYP51): 26 nM

CC(C)(C)C(O)(CCc1ccc(Cl)cc1)Cn1cncn1 (stereo not drawn) [tebuconazole]
Kd (CYP168A1 [10]): 180 ± 10 nM
Kd (Candida albicans CYP51): 36 nM

C[C@]12CC[C@H]3[C@@H](CCC4=CC(=O)CC[C@@]43C)[C@@H]1CC[C@@H]2O [testosterone]
oxygenated products formed (CYP168A1 [7]): no oxygenated products

C[C@@H](c1ncncc1F)[C@](O)(Cn1cncn1)c1ccc(F)cc1F [voriconazole]
Kd (CYP168A1 [10]): 2050 ± 540 nM
Kd (Candida albicans CYP51): 10 nM
